# Target: T1, PNPLA1 (Homo sapiens, UniProt Q8N8W4)
# T1 construct: expressed in transfected cells; host or cells: HEK293T cells
# Test: PNPLA1-dependent ω-O-acylceramide formation in HEK293T cells
# Assay type: cell-based
# Conditions: NG-497 40 µM, Orlistat 40 µM
# Description: Fig. S3: Investigation of off-target effects of NG-497 on structurally and functionally related lipid hydrolases. (a) PNPLA1-dependent formation of acylceramides was monitored in a cell-based assay in HEK293T cells. Experiments were performed in the presence or absence of NG-497 (40 µM) and the non-selective lipase inhibitor Orlistat (40 µM). Orlistat, but not NG-497, inhibited PNPLA1/CGI-58-dependent ω-O-acylceramide formation. (b-h) Enzymes were overexpressed in Expi293 cells and cell lysates were used as source of enzymatic activity. […] Experiments were performed in the presence or absence of NG-497 (100 µM) and the formation of reaction products was monitored. […]
# Data were calculated relative to the basal activity detected in LacZ-transfected controls. […]
# LPL activity was inhibited using an anti-LPL antibody. All data are presented as mean ± S.D. Statistical significance was determined via ANOVA followed by Bonferroni post hoc test ( ***, p < 0.001). […]
# Released free fatty acids were quantified via NEFA C kit (Fujifilm Wako Chemicals, Neuss, Germany) and release of p-nitrophenol was measured at 405 nm. […] Cellular ω-O-acylceramide formation was monitored using [1-14C]linoleic acid as tracer. […] The activity of purified human pancreatic lipase (MilliporeSigma #SRE0028) was determined as previously described7 in the presence or absence of NG-497 (100µM) or Orlistat (20 µM). […]
# T1 sequence (Q8N8W4 whole entry): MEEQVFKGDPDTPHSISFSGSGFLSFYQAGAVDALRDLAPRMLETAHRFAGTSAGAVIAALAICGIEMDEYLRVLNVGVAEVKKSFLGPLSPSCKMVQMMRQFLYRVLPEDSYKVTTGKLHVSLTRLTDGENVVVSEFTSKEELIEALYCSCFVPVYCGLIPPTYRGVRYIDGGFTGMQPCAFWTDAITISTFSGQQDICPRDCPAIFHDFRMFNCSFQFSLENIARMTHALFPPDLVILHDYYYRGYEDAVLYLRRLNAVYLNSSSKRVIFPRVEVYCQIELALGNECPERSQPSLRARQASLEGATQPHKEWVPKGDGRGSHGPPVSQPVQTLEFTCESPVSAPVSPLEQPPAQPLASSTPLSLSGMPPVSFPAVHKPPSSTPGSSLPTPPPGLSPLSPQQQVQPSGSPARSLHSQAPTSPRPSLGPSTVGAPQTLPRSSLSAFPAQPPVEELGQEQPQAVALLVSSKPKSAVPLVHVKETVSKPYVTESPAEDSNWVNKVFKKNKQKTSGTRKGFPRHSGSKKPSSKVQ
smiles,measurement,value
CCOc1ccc(-c2cc(OC)cc(C(=O)OC(C)C)n2)cc1 [NG-497],PNPLA1/CGI-58-dependent ω-O-acylceramide formation,not affected

# Source: PMC9011347, “Small-Molecule Inhibitors Targeting Lipolysis in Human Adipocytes” (Journal of the American Chemical Society, 2022)
